Structures can show the parent of a compound that is named as a salt. Where two headings read alike, the source gives them in different places. Marks after values point to notes of the source that are not given here.
Assays:
[1] = molecular target: T1, eqBChE (equine serum BChE) (Equus caballus, UniProt P81908); experiment: Modified Ellman's assay, IC50 for eqBChE; assay type: biochemical; conditions: for fold less effective eqBChE inhibitor than the meta-position derivative: para- vs meta-position carbamate: MTR-13 vs MTR-1, MTR-14 vs MTR-2, MTR-15 vs MTR-3
T1 construct: BChE (equine serum BChE (eqBChE)); purchased Sigma-Aldrich (Shanghai, PRC); host or cells: equine serum
Experimental: (§1) The inhibitory activities of the synthesized compounds on ChEs were evaluated utilizing elAChE and eqBChE.
(§2) The ChE inhibition abilities of the compounds were determined using a modified version of Ellman’s assay. All the experiments were conducted in 96-well plates, and the readings were obtained using an EnSpire Multimode 2300 plate reader (Perkin Elmer, MA, USA) or a multimode microplate reader (Berthold Technologies). elAChE, eqBChE, S-acetylthiocholine iodide (ATCh), S-butyrylthiocholine iodide (BTCh) and 5-5′-dithiobis (2-nitrobenzoic) acid (DTNB) were purchased from Sigma-Aldrich (Shanghai, PRC). ATCh and BTCh stock solutions were freshly prepared in water. A stock solution of DTNB (Ellman’s reagent) was prepared fresh in a sodium phosphate buffer (100 mM, pH 7, 0.15% NaHCO3 w/v). Stock solutions of drugs were prepared in a solution of acetonitrile and water (v:v = 1:9). The pH for the measurements was 8.
(§3) First, 25 μL aliquots of drug solutions at different concentrations were added to 200 μL of elAChE (0.04 U/mL) or eqBChE (0.1 U/mL) in a phosphate buffer (100 mM sodium phosphate buffer, pH 8), and the reaction system was pre-incubated at 37 °C for determined time periods. Then, 25 μL of a solution containing ATCh or BTCh (2.5 mM) and DTNB (3.4 mM) in the 100 mM sodium phosphate buffer was added to the reactions. Enzyme activity (vi) was determined by measuring the absorbance (412 nm) at 37 °C for 5 min. […] A sample containing phosphate buffer (pH 8) in place of the enzyme was analyzed for each drug concentration to account for the spontaneous conversion of the substrate into a product, and the values obtained were subtracted from each measured activity.
(§4) This method was based on the general measurement of ChE activity. […] The measurements were repeated three times for each concentration.

[2] = molecular target: T2, eqBChE (Equus caballus, UniProt P81908); experiment: Decarbamylation rate constant k3 of carbamylated eqBChE; assay type: biochemical, equine
T2 construct: BChE (equine serum BChE (eqBChE)); purchased Sigma-Aldrich (Shanghai, PRC); host or cells: equine serum

[3] = molecular target: T2, eqBChE; experiment: Kinetic study of eqBChE inhibition, carbamylation rate constant kI; assay type: biochemical, equine; conditions: pre-incubation 1-45 min, seven concentrations, read-out: kI, second-order carbamylation rate constant, Mean ± SD (converted)
Experimental: as §3

[4] = molecular target: T3, elAChE (electric eel AChE) (Electrophorus electricus, UniProt O42275); experiment: biochemical
T3 construct: purchased Sigma-Aldrich (Shanghai, PRC)
Experimental: as §1, §2, §3, §4

[5] = molecular target: T2, eqBChE; conditions: same conditions, cited from earlier work
[6] = test system: BChE; conditions: cited from earlier work
[7] = test system: AChE; conditions: cited from earlier work
[8] = molecular target: T3, elAChE (electric eel AChE); conditions: after pre-incubation with the enzyme for 60 min; read-out: elAChE IC50 Mean ± SD; cited from earlier work
[9] = molecular target: T2, eqBChE; conditions: same conditions, cited from earlier work; remark: listed apart in the source
[10] = after pre-incubation with the enzyme for 60 min, 37 °C, pH 8, read-out: elAChE IC50 Mean ± SD
[11] = after pre-incubation with the enzyme for 60 min, 37 °C, pH 8, read-out: eqBChE IC50 Mean ± SD
[12] = elAChE IC50 Mean ± SD, after pre-incubation with the enzyme for 60 min, 37 °C, pH 8

T1 sequence (P81908 whole entry): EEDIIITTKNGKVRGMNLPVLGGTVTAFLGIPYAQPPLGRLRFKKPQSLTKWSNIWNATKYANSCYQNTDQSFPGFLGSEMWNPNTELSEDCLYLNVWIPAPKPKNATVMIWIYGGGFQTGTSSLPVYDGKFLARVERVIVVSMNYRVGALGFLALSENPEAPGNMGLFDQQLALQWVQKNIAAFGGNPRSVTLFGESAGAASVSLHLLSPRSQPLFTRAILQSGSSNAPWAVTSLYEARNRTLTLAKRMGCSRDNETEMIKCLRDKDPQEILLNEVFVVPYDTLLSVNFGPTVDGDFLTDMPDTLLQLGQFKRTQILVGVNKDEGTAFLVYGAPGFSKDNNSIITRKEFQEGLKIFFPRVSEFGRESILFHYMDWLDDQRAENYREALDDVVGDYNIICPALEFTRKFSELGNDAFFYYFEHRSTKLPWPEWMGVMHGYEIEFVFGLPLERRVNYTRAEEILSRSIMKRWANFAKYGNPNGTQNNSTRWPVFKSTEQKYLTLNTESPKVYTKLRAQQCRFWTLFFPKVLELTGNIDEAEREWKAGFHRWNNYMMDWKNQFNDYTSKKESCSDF
T2 sequence (P81908 whole entry): as above
T3 sequence (O42275 24-633): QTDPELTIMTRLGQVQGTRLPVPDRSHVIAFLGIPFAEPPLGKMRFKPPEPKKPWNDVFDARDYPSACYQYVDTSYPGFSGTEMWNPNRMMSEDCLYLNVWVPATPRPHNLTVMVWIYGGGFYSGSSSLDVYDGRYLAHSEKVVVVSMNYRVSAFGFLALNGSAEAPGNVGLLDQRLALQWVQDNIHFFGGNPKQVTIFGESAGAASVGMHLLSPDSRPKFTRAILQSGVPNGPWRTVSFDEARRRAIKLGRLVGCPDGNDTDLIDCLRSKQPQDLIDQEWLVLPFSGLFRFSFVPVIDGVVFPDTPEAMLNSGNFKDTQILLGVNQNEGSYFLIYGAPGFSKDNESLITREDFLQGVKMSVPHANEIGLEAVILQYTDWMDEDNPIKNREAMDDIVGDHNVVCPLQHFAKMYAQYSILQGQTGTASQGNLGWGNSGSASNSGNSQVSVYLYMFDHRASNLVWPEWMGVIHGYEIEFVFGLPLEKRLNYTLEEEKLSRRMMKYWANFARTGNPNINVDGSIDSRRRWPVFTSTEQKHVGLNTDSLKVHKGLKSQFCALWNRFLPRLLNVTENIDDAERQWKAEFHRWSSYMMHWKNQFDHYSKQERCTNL

Row | SMILES | IC50 [4, 10] | IC50 [1, 11] | other results
1 | CCN(C)C(=O)Oc1cccc(C(O)CN2CCCCC2)c1 (stereo not shown) [MTR-3, 3-(1-Hydroxy-2-(piperidin-1-yl)ethyl)phenyl Ethyl(methyl)carbamate] | > 100 µM |  | IC50 ([1]; as printed in nM in abstract and text, read-out: IC50(BChE)): 78 nM; nature of BChE inhibition ([2]; activity recovery after dilution): pseudo-irreversible; k3, decarbamylation rate constant, Mean ± SD ([2]; eqBChE, N-methyl-N-ethyl-carbamylated, dilution 1:300, 37 °C, pH 8): 0.0093 ± 0.0010 h⁻¹; kinact/KI [3]: 4630 M⁻¹ s⁻¹; IC50 ([4]; read-out: IC50(AChE)): > 100 µM
2 | CCN(C)C(=O)Oc1cccc(C(O)CNc2ccc(I)cc2)c1 (stereo not shown) [MTR-9, 3-(1-Hydroxy-2-((4-iodophenyl)amino)ethyl)phenyl Ethyl(methyl)carbamate] | > 100 µM | 1730 ± 50 nM | 
3 | C#Cc1cccc(NCC(O)c2cccc(OC(=O)N(C)CC)c2)c1 (stereo not shown) [MTR-12, 3-(2-((3-Ethynylphenyl)amino)-1-hydroxyethyl)phenyl Ethyl(methyl)carbamate] | > 100 µM | 156 ± 7 nM | 
4 | CCN(C)C(=O)Oc1cccc(C(O)CNC2CCCC2)c1 (stereo not shown) [MTR-5, 3-(2-(Cyclopentylamino)-1-hydroxyethyl)phenyl Ethyl(methyl)carbamate] | 92 ± 7 µM | 74 ± 5 nM | 
5 | CCN(C)C(=O)Oc1cccc(C(O)CNC(C)(C)CC)c1 (stereo not shown) [MTR-2, 3-(1-Hydroxy-2-(tert-pentylamino)ethyl)phenyl Ethyl(methyl)carbamate hydrochloride] |  | 170 ± 10 nM | IC50 [4, 12]: > 100 µM
6 | CCN(C)C(=O)Oc1cccc(C(O)CNC(C)(C)C)c1 (stereo not shown) [MTR-1, 3-(2-(Tert-butylamino)-1-hydroxyethyl)phenyl ethyl(methyl)carbamate Hydrochloride] |  | 370 ± 20 nM | IC50 [4, 12]: > 100 µM
7 | CN(C)C(=O)Oc1cc(OC(=O)N(C)C)cc(C(O)CNC(C)(C)C)c1 (stereo not shown) [Bambuterol] |  |  | k3, decarbamylation rate constant, Mean ± SD ([5]; listed as bambuterol): 0.0839 ± 0.0028 h⁻¹; k3, decarbamylation rate constant, Mean ± SD [5]: 0.0839 ± 0.0028 ^a ×h^−1; IC50 [6]: 0.003 µM; IC50 [7]: 30 µM; IC50 [8]: > 100 µM; kI (kI1), carbamylation rate constant, Mean ± SD ([9]; listed as bambuterol): 1.44 ± 0.02 ×10^5 M^−1 min^−1; kI (kI1), carbamylation rate constant, Mean ± SD [9]: 1.44 ± 0.02 ^a ×10^5 M^−1 min^−1
8 | CCN(C)C(=O)Oc1cccc(C(O)CNC2CCCCC2)c1 (stereo not shown) [MTR-4, 3-(2-(Cyclohexylamino)-1-hydroxyethyl)phenyl Ethyl(methyl)carbamate] | 79 ± 4 µM | 9 ± 0.4 nM | 
9 | CCN(C)C(=O)Oc1cccc(C(O)CNc2ccc(F)cc2)c1 (stereo not shown) [MTR-10, 3-(2-((4-Fluorophenyl)amino)-1-hydroxyethyl)phenyl Ethyl(methyl)carbamate] | > 100 µM | 192 ± 7 nM | 
10 | CCN(C)C(=O)Oc1cccc(C(O)CNc2ccccc2)c1 (stereo not shown) [MTR-8, 3-(1-Hydroxy-2-(phenylamino)ethyl)phenyl Ethyl(methyl)carbamate] | > 100 µM | 320 ± 20 nM | 
11 | CCN(C)C(=O)Oc1cccc(C(O)CN2CCCC2)c1 (stereo not shown) [MTR-7, 3-(1-Hydroxy-2-(pyrrolidin-1-yl)ethyl)phenyl Ethyl(methyl)carbamate] | 78.9 ± 0.9 µM | 210 ± 10 nM | 
12 | CCN(C)C(=O)Oc1ccc(C(O)CNC(C)(C)CC)cc1 (stereo not shown) [MTR-14, 4-(1-Hydroxy-2-(tert-pentylamino)ethyl)phenyl Ethyl(methyl)carbamate] | > 100 µM | 1700 ± 100 nM | fold less effective eqBChE inhibitor than the meta-position derivative [1]: ninefold
13 | CCN(C)C(=O)Oc1ccc(C(O)CNC(C)(C)C)cc1 (stereo not shown) [MTR-13, 4-(2-(Tert-butylamino)-1-hydroxyethyl)phenyl Ethyl(methyl)carbamate] | > 100 µM | 8700 ± 300 nM | fold less effective eqBChE inhibitor than the meta-position derivative [1]: 22 fold
14 | CCN(C)C(=O)Oc1cccc(C(O)CNC(C)(C)c2ccccc2)c1 (stereo not shown) [MTR-11, 3-(1-Hydroxy-2-((2-phenylpropan-2-yl)amino)ethyl)phenyl Ethyl(methyl)carbamate] | > 100 µM | 323 ± 8 nM | 
15 | CCN(C)C(=O)Oc1cccc(C(O)CN2CCOCC2)c1 (stereo not shown) [MTR-6, 3-(1-Hydroxy-2-morpholinoethyl)phenyl Ethyl(methyl)carbamate] | > 100 µM | 2500 ± 200 nM | 
16 | CCN(C)C(=O)Oc1ccc(C(O)CN2CCCCC2)cc1 (stereo not shown) [MTR-15, 4-(1-Hydroxy-2-(piperidin-1-yl)ethyl)phenyl Ethyl(methyl)carbamate] | 59 ± 16 µM | 420 ± 20 nM | 
